Data as given in EP2229935A1, “Peptide derivatives or pharmaceutically acceptable salts thereof, method for producing the same, use of said derivatives and pharmaceutical composition” (Nebolsin, Vladimir Evgenievich, priority 1997, dated 1999).
“And” between values parts separate entries of the source, which are not always exact repeats. Equal values may be shown once. Marks after values point to notes of the source that are not given here.

Key:
[1] = system: lipid peroxidation (LP) products; experiment: Antioxidant activity in vivo: acute toxic hepatic lesion with CCl4; details: rats, CCl4 3 days; for Liver, MDA, nM/mg of tissue / Liver, diene conjugates, E232/mg of tissue / Liver, diene ketones, trienes E278/mg of tissue: intragastral
Protocol: Antioxidant activity was studied in an in vivo experiment on the model of acute toxic hepatic lesion with carbon quadrichloride (CCl4).
Experiment was carried out on 40 mongrel male rats with initial body mass 190-200 g fed a standard vivarium ration. Each group included 10 animals. Hepatic lesion (experimental hepatitis) was induced in animals by intragastral administration of 0.25 ml per 100 g of body mass CCl4 in the form of 50% solution in vaseline oil for 3 days [Vengerovsky A.I., Chuchalin V.S., Pauls O.V., Saratikov A.S. Effect of hepatoprotectors on lipid metabolism in hepatitis induced by Ccl4. Bulletin of Experimental Biology (1987), No 4, pp. 430-432]. […] Animals of the control group were administered CCl4 as described above (group 2). Intact animals were orally given normal saline in an equivalent amount (group 1).
The content of primary lipid peroxidation (LP) products - diene conjugates, diene ketones and trienes - were determined using the published method [Volchegorsky I.A., Nalimov A.G., Yarovinsky B.G., Lifshits R.I. Comparison of different approaches to determining lipid peroxidation products in heptane-isopropanolic blood extracts. Voprosy Meditsinskoy Chimii (Problems of Medical Chemistry) (1989),No 1, pp. 127-131]. Content calculation of LP products was done correlating the values of respective extinctions with 1 ml of test sample.
The amount of LP final product - malonic dialdehyde (MDA) - was determined by the test with thiobarbituric acid (TBA) [Korobeinikova E.N. Modification of lipid peroxidation products in the reaction with thiobarbituric acid. Laboratornoye delo (Laboratory Matter) (1989), No 7, pp. 8-10]. Concentration of TBA-active product was calculated using regression equation. MDA content in the liver of experimental animals was assessed using the modified method [Stalnaya I.D., Garishvili T.G. The method of determining malonic dialdehyde using thiobarbituric acid. In: Modem methods in biochemistry. Moscow, Meditsina publishers. (1977), pp. 66-69], performing preliminary extraction of lipids according to Folch [Cates M. Technology of Lipidology. Moscow, Mir publishers (1975), pp. 74-76].

[2] = system: Wistar rats; experiment: Non-infectious pulmonary granulomatosis model (aerosol Sephadex A-25); details: intragastral 50 mg/kg once daily
Protocol: Antiinflammatory and immunomodulating effect of the compound III with intragastral administration was studied on the non-infectious pulmonary granulomatosis model.
20 female 4 months old Wistar rats weighing 200-220 g were used in exepriment.
Sephadex A-25 at a dose 5 mg per 1 kg of body mass, as administered to rats under ether anesthesia using an original dosing device for inhalation administering dry powders manufactured at the Scientific-Research Institute for Medical Instrument-Making. […] Compound III was administered intragastrally using a gastric probe at a dose 50 mg per 1 kg of body mass and immediately after that, single aerosol administration of Sephadex A-25 was performed according to the earlier described technique. Then compound III was administered intragastrally once daily for 6 days at a dose 50 mg/kg of body mass in the form of water solution. Rats were examined by day 7 after commencement of administering compound III and Sephadex A-25.
Bronchoalveolar lavage was obtained under Hexenal anesthesia. Cytosis, i.e. absolute number of cells in 1 ml was determined in the bronchoalveolar lavage fluid. Endopulmonal cytogram (in percent) was calculated in the smears stained according to Romanovsky-Gimza. […] Histological examination of lungs stained with hematoxylin and eosine was performed. Volume density of alveolitis and emphysema was determined using the point count method.

[3] = system: P-450 and B5 cytochromes; experiment: Hepatic content of P-450 and B5 cytochromes (microsomal liver fraction); format: in vivo, guinea pigs; details: guinea pig liver microsomes; administered three times 72, 48 and 24 hours before
Protocol: Change in hepatic monooxygenase system was studied on mongrel male guinea pigs with initial mass 250-300 g; each group included 12 animals. […]. The content of P-450 and […] cytochromes was measured according to the published method [Omura T., Scato R. The monooxide binding pigment of liver microsomes. 11. Solubilization, purification and properties. J. Chem. (1964), Vol. 239, pp. 2379-2385] in microsomal liver fraction, isolated using differential centrifugation method [Ahokas J., Pelkonen O., Karkin N. Charcaterisation of BP-hydroxylase of Trout-liver. Cancer Res. (1977), Vol. 37, pp. 3737-3743]. The priority method {Izotov M.V., Scherbakov V.M., Devichensky V.M. et al. The method of determining the content of P-450 cytochrome isoenzymes in liver microsomes. The inventor's certificate No 1,488,738. B.I. (1989), No 3.-6.06.09, ICI, 01. - No 33/15, No 33/48]. Microsomal protein content was determined using the modified Lowry method [Hartree E. Determination of protein: a modification of the Lowry method, that gives a linear photometric responces. Ann. Biochem. (1972), Vol. 48, pp. 422-427].

[4] = system: Lewis pulmonary carcinoma (LLC); experiment: LLC metastasizing with surgical resection of the primary tumor node, alone and with Cyclophosphane; format: in vivo, C57BL/6 female mice; details: day 29
Protocol: An important property of the compounds is their ability to manifest pharmacological activity on the model with resection of the primary tumor node and not to lower therapeutic efficacy of respective antitumor drugs. […] Surgical resection of the primary tumor node was performed by day 13 following tumor transplantation. The test anitumor compounds were administered according to two dosage regimens:
Dosage regimen 1 - animals were administered compound III from day 1 till day 13 of experiment at a dose 500 µg/kg (group 1); Cyclophosphane was administered intraperitoneally two times before operation with 96 hour interval at a dose 100 µg/kg (group 2); combined administration of compound III and Cyclophosphane was similar to administration of substances in groups 1 and 2 (group 3). Number of metastases was calculated by day 29 of experiment;
Dosage regimen 2 - animals were administered compound III from day 14 of experiment (commencement of administration 24 hours post operation) till day 28 (group 4); Cyclophosphane was administered twice post operation with 96 hour interval at a dose 100 µg/kg (group 5); combined administration of compound III and Cyclophosphane similar to administration of substances in groups 4 and 5 (group 6). Antimetastatic efficacy of the drugs was considered by day 29 of experiment.

[5] = system: encephalomyocarditis virus; experiment: Protection of mice against encephalomyocarditis virus infection; format: in vivo; details: 100 LD50 virus, once intraperitoneally 24 hours after infection, 30 µg/kg
Protocol: Studies ere carried out on mongrel mice of both sexes with initial body mass 10-11 g. The control and experimental groups included 30 animals each. Compound XLIV and the reference drug interferon inducer Ridostine were administered once intraperitoneally 24 hours after infection of mice with encephalomyocarditis virus at doses 30 µg/kg and 5.0 mg/kg, respectively. Encephalomyocarditis virus was administered at a dose 100 LD50. Antiviral activity was determined by change in mean lifetime (MLT) of mice and by the degree of protection against lethal viral infection.

[6] = Wistar rats, day 7 after aerosol Sephadex A-25
[7] = regimen 1, prior to operation: day 1 till day 13, 500 µg/kg
[8] = regimen 2, post operation: day 14 till day 28

`O=C(O)CCCC(=O)NCCc1c[nH]cn1` [compound III, N-GLUTARYLHISTAMINE] was tested, and the “Blood serum, MDA, nM/ml” value ([1]; intragastral 3 days with CCl4, 50 µg/kg) was 4.05 ± 0.198*^2 nM/ml, the “Blood serum, MDA, nM/ml” value ([1]; intragastral 3 days with CCl4, 500 µg/kg) was 3.89 ± 0.11**^2 nM/ml and the “Liver, MDA, nM/mg of tissue” value ([1]; 50 µg/kg) was 4.98 ± 0.13**^2 nM/mg of tissue. For the same compound, the “Liver, diene conjugates, E232/mg of tissue” value ([1]; 50 µg/kg) was 16.25 ± 0.61 E232/mg of tissue, the “Liver, diene ketones, trienes E278/mg of tissue” value ([1]; 50 µg/kg) was 8.42 ± 0.25**^2 E278/mg of tissue and the “Liver, MDA, nM/mg of tissue” value ([1]; 500 µg/kg) was 5.01 ± 0.17**2 nM/mg of tissue. The “Liver, diene conjugates, E232/mg of tissue” value ([1]; 500 µg/kg) was 15.89 ± 0.38 E232/mg of tissue, the “Liver, diene ketones, trienes E278/mg of tissue” value ([1]; 500 µg/kg) was 8.24 ± 0.19*^2 E278/mg of tissue and the “Volume density in percent: Alveolitis” value [2, 6] was 3.8±0.1% and 3.8 ± 1.0%. For the same compound, the “Volume density in percent: Emphysema” value [2, 6] was 11.2±3.2%, the “Cytosis (absolute number of cells in 1 ml)” value ([2]; bronchoalveolar lavage, day 7) was 0.169 ± 0.054 and the “Endopulmonary cytogram in percent: Lymphocytes” value ([2]; bronchoalveolar lavage, day 7) was 7.6 ± 1.5%. The “Endopulmonary cytogram in percent: Macrophages” value ([2]; bronchoalveolar lavage, day 7) was 75.2 ± 4.5%, the “Endopulmonary cytogram in percent: Neutrophils” value ([2]; bronchoalveolar lavage, day 7) was 16.8 ± 2.6% and the “Volume density of lymphoid follicles in percent” value ([2]; lymphoid tissue associated with bronchi, day 7) was 34.7 ± 10.3%. The “B5 /P-450” value [3] was 0.97*, the “B5 cytochrome nM/mg of protein” value [3] was 1.00 ± 0.03 nM/mg of protein and the “P-450B cytochromes nM/mg of protein” value [3] was 0.72 ± 0.02 nM/mg of protein. The P-450B/p-450L [3] was 2.32**, the “Mean number of metastases” value [4, 7] was 32.0 ± 11.8 and the Metastasizing inhibition percent [4, 7] was 8.0%. The “Metastasizing rate (%)” value [4, 7] was 100%, the “Mean number of metastases” value [4, 8] was 28.6 ± 8.5 and the Metastasizing inhibition percent [4, 8] was 22.9%. For the same compound, the “Metastasizing rate (%)” value [4, 8] was 100%.

γ-L-glutamylhistamine [compound XLIV] was tested, and the “MLT, days” value [5] was 12.5* days, the “Protection degree, percent” value [5] was 17.0% and the “Survival rate, percent” value [5] was 30.3* percent.
